Measurements as given in patent US12398117B2, “Heteroarylamidopyridinol derivative and pharmaceutical composition comprising same as active ingredient for prevention or treatment of autoimmune disease” (INNOVO THERAPEUTICS INC., priority 2019, dated 2025).
pIC50: −log10 of the molar value.

What was measured:
[1] = tested on: adhesion of intestinal epithelial cells (HT-29) and monocytic cells (U937) induced by TNF-α; experiment: Inhibition of TNF-α-induced adhesion of monocytes and intestinal epithelial cells; format: cell-based, human; conditions: Homo sapiens
Protocol: HT-29 human colon cancer-derived epithelial cells and U937 human-derived monocytes were cultured in RPMI 1640 medium containing 10% FBS and 1% penicillin/streptomycin (PS) in a 37° C., 5% CO2 incubator. When the cells grew more than 80% of the bottom area of the culture flask, they were passaged at a ratio of 1:3 and used in this experiment. HT-29 cells were cultured in a 24-well plate at the density of 2×10^5 cells/cm^2, and the test drug was pretreated in a medium containing 1% FBS and 1% PS for 1 hour. Thereafter, 10 μg/mL of BCECF-AM was treated thereto and reacted at 37° C. for 30 minutes. U937 cells loaded with BCECF and TNF-α (10 ng/mL) were reacted with HT-29 cells previously treated with the test drug at 37° C. for 3 hours. Upon completion of the reaction, the medium was removed, and the culture flask was washed twice with PBS to remove non-adherent U937 cells. In the next step, the cells were lysed by treating with 0.1% Triton X-100 (0.1 M Tris) and reacted at room temperature for 30 minutes. Then, fluorescence was measured and quantified using a fluostar optima microplate reader (BMG Labtechnologies, Germany) (Carvalho et al., 1996; Thapa et al., 2008).

[2] = tested on: collagen-induced rheumatoid arthritis animal model; experiment: Oral efficacy in collagen-induced rheumatoid arthritis (CIA) mouse model; format: in vivo, DBA/1J mice
Protocol: 12-week-old normal male mice and arthritis-induced DBA/1J mice were purchased from Central Lab. Animal Inc [To induce arthritis, DBA/1J mice were sensitized by injecting a mixed solution of Complete Freund's Adjuvant (CFA; DIFCO, Detroit, MI) and Bovine Type II collagen (1:1, v/v) intradermally at the pinna base at 8 weeks of age, and then, secondary sensitization was performed by intradermal injection at the tail head at 11 weeks of age]. The purchased arthritis mice were acclimatized to the laboratory environment for a week, and then oral administration of the drug was started.
Visual observation of arthritic lesions was performed using the following scores based on a reference (Barnett et al., 1998).
Therefore, the highest score for arthritic lesions was 16 per mouse.
The hind paw thickness, which is one of the pathological indices of rheumatoid arthritis, was measured using a caliper.
The right hind leg of each mouse was extracted, and all skin and muscles were removed, leaving only the bones and joints. The hind leg was fixed in 4% paraformaldehyde solution for 2 days, then immersed in 10% formic acid for 5 days to decalcify, and then immersed in 30% sucrose solution. When the tissue subsided, the articular tissue was cut into […] thick using a cryomicrotome (Microm HM 450, Thermo Fisher Scientific, Germany) and stored in a cryopreservation solution. Staining was performed using the stored tissue sections. After attaching the tissue sections to the slide glass, they were hydrated with 100%, 95%, 70%, and 50% ethanol solutions, and some were stained with safranin and others were stained with hematoxylin/eosin. For safranin staining, the tissue sections were first stained with 0.1% fast green solution, washed with 1% acetic acid solution, and then stained with 1% safranin solution. Thereafter, the tissue sections were dehydrated by immersing in ethanol solutions in the reverse order of hydration, and then preserved in xylene solution and mounting solution, and photographed under a microscope. Hematoxylin/eosin staining was performed in the same manner as in the colon tissue staining. The tissue sections were dehydrated, preserved in xylene solution and mounting solution, and observed under a microscope.
The degree of microscopic tissue damage of the stained articular tissue was measured using the following scores.
After the spleen and draining lymph nodes of the mice were extracted, the number of immune cells was counted. To confirm the distribution of Th1 and Th17 cells, the immune cells obtained from each organ were stimulated using PMA/Ionomycin and Golgi stop.
After staining using an anti-IFN-γ antibody that can identify Th1 cells, an anti-IL-17 antibody that can identify Th17 cells, and an anti-CD8 antibody that can identify cytotoxic T cells, the proportion of inflammatory cells among the total immune cells was confirmed using flow cytometry.

Q: With `Cc1ccc2[nH]c(C(=O)Nc3nc(C)c(O)c(C)c3C)cc2c1` [Compound X-09, N-(5-hydroxy-3,4,6-trimethylpyridin-2-yl)-5-methyl-1H-indole-2-carboxamide] as the compound, how does the inhibition at 1 µM ([1]; test drug 1 μM, TNF-α 10 ng/mL, HT-29/U937, read-out: Inhibitory activity (%)) read?
A: 82.8%

Q: What about the pIC50 ([1]; inhibition of adhesion by TNF-α) of the same compound?
A: 6.52

Q: And the “number of inflammatory cells Th1 and Th17 and activated CD8 cells in spleen” value ([2]; after 35 days of drug administration, FIG. 8B)?
A: dose-dependent decrease

Q: What about the “number of inflammatory cells Th1 and Th17 and activated CD8 cells in draining lymph node” value ([2]; after 35 days of drug administration, FIG. 8C) of the same compound?
A: dose-dependent effect

Q: And the hind paw thickness ([2]; oral 50 mg/kg, 35th day of drug administration)?
A: 1.70 mm

Q: What about the arthritis score ([2]; oral 50 mg/kg, 35th day of drug administration, maximum score 16) of the same compound?
A: 7.2

Q: What about the “degree of arthritis (visual observation score)” value ([2]; oral, up to 35 days, FIG. 5A) of the same compound?
A: significantly improved dose dependently
